Results on 14 molecules are retold here after patent publication US20250163064A1, “QUINAZOLINE COMPOUNDS AND USES THEREOF AS INHIBITORS OF MUTANT KRAS PROTEINS” (AMGEN INC., priority 2022, published 2025).

The target of assay [1] is GDP-bound KRAS protein (aa 1-169), G12D and C118A; SOS-mediated nucleotide exchange (Homo sapiens (Human), UniProt P01116, C118A/G12D). In words: KRAS G12D Coupled Nucleotide Exchange Assay. It counts as biochemical. To be noted: 2 h compound pre-incubation, GTP, cRAF AlphaScreen. On the procedure:
Purified GDP-bound KRAS protein (aa 1-169), containing both G12D and C118A amino acid substitutions and an N-terminal His-tag, was pre-incubated in assay buffer (25 mM HEPES pH 7.4, 10 mM MgCl2, and 0.01% Triton X-100) with a compound dose-response titration for 2 h. Following compound pre-incubation, purified SOS protein (aa 564-1049) and GTP (Roche 10106399001) were added to the assay wells and incubated for an additional 30 min. […] The assay plates were then read on a PerkinElmer En Vision Multilabel Reader, using AlphaScreen® technology, and data were analyzed using a 4-parameter logistic model to calculate IC50 values.

Assay [2] has as its target His-tagged KRAS G12D protein (Homo sapiens (Human), UniProt P01116, G12D). In words: KRAS G12D TR-FRET Assay. To be noted: biotinylated KRPep-2d, 10 μM GDP. Format: binding. On the procedure: Compounds of interest were prepared in a dose-response titration in DMSO, and 80 nL were added via Labcyte Echo to each well of a 384-well plate (Perkin Elmer 6008280). The His-tagged KRAS G12D protein (Amgen) was diluted to 20 nM in Assay Buffer (20 mM HEPES, pH 7.4, 10 mM MgCl2, 50 mM NaCl, 0.1% BSA, 0.01% Tween-20, 10 μM GDP) and 2 μL was added to the appropriate wells of the 384-well plate. The plate was incubated for 30 minutes at rt. Biotinylated KRPep-2d substrate (Amgen) was diluted to […] in Assay Buffer and 2 AL was added to all wells and incubated for 1 hour at room temperature. Detection Reagent (0.4 nM LANCE Eu-W1024 Anti-6×His (Perkin Elmer AD0401), 5 nM streptavidin-d2 (Cisbio 610SADLA)) was prepared in Assay Buffer, then 4 AL was added to the plate and incubated for 1 h at rt. Plates were read using PerkinElmer En Vision (ex: 320 nm, em1: 665 nm, em2: 615 nm) and em1/em2 data was used to generate curve fits using a 4-parameter logistic model to calculate IC50 values.

Assay [3] relates to Phosphorylation of ERK1/2 in AsPC-1 cells. The assay can be described thus: Phospho-ERK1/2 MSD Assay. It counts as cell-based. On the procedure:
AsPC-1 (ATCC® CRL-1682TM) cells were cultured in RPMI 1640 Medium (ThermoFisher Scientific 11875093) containing 10% fetal bovine serum (ThermoFisher Scientific 16000044) and 1× penicillin-streptomycin-glutamine (ThermoFisher Scientific 10378016). Sixteen hours prior to compound treatment, AsPC-1 cells were seeded in 96-well cell culture plates at a density of 25,000 cells/well and incubated at 37° C., 5% CO2. A compound dose-response titration was diluted in growth media, added to appropriate wells of a cell culture plate, and then incubated at 37° C., 5% CO2 for 2 hours. Following compound treatment, cells were washed with ice-cold Dulbecco's phosphate-buffered saline, no Ca^2+ or Mg^2+ (ThermoFisher Scientific 14190144), and then lysed in RIPA buffer (50 mM Tris-HCl pH 7.5, 1% Igepal, 0.5% sodium deoxycholate, 150 mM NaCl, and 0.5% sodium dodecyl sulfate) containing protease inhibitors (Roche 4693132001) and phosphatase inhibitors (Roche 4906837001). Phosphorylation of ERK1/2 in compound-treated lysates was assayed using Phospho-ERK1/2 Whole Cell Lysate kits (Meso Scale Discovery K151DWD) according to the manufacturer's protocol. Assay plates were read on a Meso Scale Discovery Sector Imager 6000, and data were analyzed using a 4-parameter logistic model to calculate IC50 values.

The mark [4] stands for this setting: Homo sapiens, ASPC1, 2 h, read-out: 2 h p-ERK (AsPC-1 cells), IC50 (μM), AsPC-1 cells, 2 h compound treatment.
Where [5] appears, read: read-out: 2 h p-ERK (AsPC-1 cells), IC50, AsPC-1 cells, 2 h compound treatment.

SMILES strings stand for the structures. Like-named read-outs stand apart in the source and are kept apart here.

Chain of GDP-bound KRAS protein (aa 1-169), G12D and C118A; SOS-mediated nucleotide exchange (P01116 other isoform, or with tags, fused parts or gaps G12D/C118A): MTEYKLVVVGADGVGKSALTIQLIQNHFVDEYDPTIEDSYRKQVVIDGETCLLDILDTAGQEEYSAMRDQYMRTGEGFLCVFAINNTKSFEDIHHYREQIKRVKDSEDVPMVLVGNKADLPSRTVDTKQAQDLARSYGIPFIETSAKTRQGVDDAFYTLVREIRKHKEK
Chain of His-tagged KRAS G12D protein (P01116-2 other isoform, or with tags, fused parts or gaps G12D): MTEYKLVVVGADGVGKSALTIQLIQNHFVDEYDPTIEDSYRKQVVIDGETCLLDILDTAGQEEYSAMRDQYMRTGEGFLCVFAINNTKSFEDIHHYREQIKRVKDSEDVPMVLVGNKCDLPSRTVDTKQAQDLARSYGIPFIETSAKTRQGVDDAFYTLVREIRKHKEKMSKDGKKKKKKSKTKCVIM

As for `C[C@]1(CO)CCCN1c1nc(OC[C@@]23CCCN2C[C@H](F)C3)nc2c(F)c(-c3ccc(F)c4sc(N)c(C#N)c34)c(Cl)cc12` [Example 52, 2-Amino-4-(6-chloro-8-fluoro-2-(((2R,7aS)-2-fluorotetrahydro-1H-pyrrolizin-7a(5H)-yl)methoxy)-4-((R)-2-(hydroxymethyl)-2-methylpyrrolidin-1-yl)quinazolin-7-yl)-7-fluorobenzo[b] thiophene-3-carbonitrile], the half-inhibitory concentration (IC50) in assay [1] was 7 nM; in assay [2] it was 8 nM; in assay [3] (setting [4]), 0.505 µM.

Consider `N#Cc1c(N)sc2c(F)ccc(-c3c(Cl)cc4c(N5CCCC6(CC(=O)C6)C5)nc(OC[C@@]56CCCN5C[C@H](F)C6)nc4c3F)c12` [Example 40, 2-Amino-4-(6-chloro-8-fluoro-2-(((2R,7aS)-2-fluorotetrahydro-1H-pyrrolizin-7a(5H)-yl)methoxy)-4-(2-oxo-6-azaspiro[3.5]nonan-6-yl)quinazolin-7-yl)-7-fluorobenzo[b] thiophene-3-carbonitrile], for which the IC50 was determined as 26 nM in assay [1], 19 nM in assay [2] and 1.68 µM in assay [3] (setting [4]).

In the case of `C[C@@]1(CO)CCCN1c1nc(OC[C@@]23CCCN2C[C@H](F)C3)nc2c(F)c(-c3ccc(F)c4sc(N)c(C#N)c34)c(Cl)cc12` [Example 47, 2-Amino-4-(6-chloro-8-fluoro-2-(((2R,7aS)-2-fluorotetrahydro-1H-pyrrolizin-7a(5H)-yl)methoxy)-4-((S)-2-(hydroxymethyl)-2-methylpyrrolidin-1-yl)quinazolin-7-yl)-7-fluorobenzo[6] thiophene-3-carbonitrile], the IC50 in assay [1] came to 7 nM; in assay [2], 17 nM; in assay [3] (setting [4]) it was 1.11 µM.

In the case of `N#Cc1c(N)sc2c(F)ccc(-c3c(Cl)cc4c(N5CCC[C@H](O)C5)nc(OC[C@@]56CCCN5C[C@H](F)C6)nc4c3F)c12` [Example 36, 2-Amino-4-(6-chloro-8-fluoro-2-(((2R,7aS)-2-fluorotetrahydro-1H-pyrrolizin-7a(5H)-yl)methoxy)-4-((S)-3-hydroxypiperidin-1-yl)quinazolin-7-yl)-7-fluorobenzo[b] thiophene-3-carbonitrile], the IC50 in assay [1] was 6 nM; in assay [2], 5 nM; in assay [3] (setting [4]), 0.205 µM.

Regarding `N#Cc1c(N)sc2c(F)ccc(-c3c(Cl)cc4c(N5CCOCC(O)(C(F)F)C5)nc(OC[C@@]56CCCN5C[C@H](F)C6)nc4c3F)c12` (single isomer, unassigned) [Example 46], the IC50 in assay [1] was 3 nM; in assay [2], 6 nM; in assay [3] (setting [4]) it was 0.148 µM.

On to `N#Cc1c(N)sc2c(F)ccc(-c3c(Cl)cc4c(C5=CCCOC5)nc(OC[C@@]56CCCN5C[C@H](F)C6)nc4c3F)c12` [Example 70, 2-Amino-4-(6-chloro-4-(5,6-dihydro-2H-pyran-3-yl)-8-fluoro-2-(((2R,7aS)-2-fluorotetrahydro-1H-pyrrolizin-7a(5H)-yl)methoxy)quinazolin-7-yl)-7-fluorobenzo[b]thiophene-3-carbonitrile bis(2,2,2-trifluoroacetate)], for which the results for the IC50 in assay [1], in assay [2] and in assay [3] (setting [4]) were 19 nM, 34 nM and 0.845 µM, respectively.

In the case of `CCc1cc2c(N3CCOCC(C)(O)C3)nc(OC[C@@]34CCCN3C[C@H](F)C4)nc2c(F)c1-c1ccc(F)c2sc(N)c(C#N)c12` (stereo partly drawn) [Example 62, 2-Amino-4-(6-ethyl-8-fluoro-2-(((2R,7aS)-2-fluorotetrahydro-1H-pyrrolizin-7a(H)-yl)methoxy)-4-(6-hydroxy-6-methyl-1,4-oxazepan-4-yl)quinazolin-7-yl)-7-fluorobenzo[b]thiophene-3-carbonitrile], the IC50 was found to be 1 nM in assay [1], 3 nM in assay [2] and 0.025 µM in assay [3] (setting [5]).

For the molecule `N#Cc1c(N)sc2c(F)ccc(-c3c(Cl)cc4c(N5CCCC[C@H](O)C5)nc(OC[C@@]56CCCN5C[C@H](F)C6)nc4c3F)c12` [Example 5, 2-Amino-4-(6-chloro-8-fluoro-2-(((2R,7a.S)-2-fluorotetrahydro-1H-pyrrolizin-7a(5H)-yl)methoxy)-4-((S)-3-hydroxyazepan-1-yl)quinazolin-7-yl)-7-fluorobenzo[b] thiophene-3-carbonitrile], the results for the IC50 in assay [1], in assay [2] and in assay [3] (setting [4]) were 4 nM, 3 nM and 0.097 µM, respectively.

Regarding `N#Cc1c(N)sc2c(F)ccc(-c3c(Cl)cc4c(N5CCCC6(CC(=O)N6)C5)nc(OC[C@@]56CCCN5C[C@H](F)C6)nc4c3F)c12` (stereo partly drawn) [Example 13, 2-Amino-4-(6-chloro-8-fluoro-2-(((2R,7aS)-2-fluorotetrahydro-1H-pyrrolizin1 7a(5H)-yl)methoxy)-4-(2-oxo-1,6-diazaspiro[3.5]nonan-6-yl)quinazolin-7-yl)-7-fluorobenzo[b] thiophene-3-carbonitrile], the concentration for half-maximal inhibition (IC50) was 5 nM in assay [1], 5 nM in assay [2] and 2.21 µM in assay [3] (setting [4]).

As for `C[C@@H]1[C@H](O)CCN1c1nc(OC[C@@]23CCCN2C[C@H](F)C3)nc2c(F)c(-c3ccc(F)c4sc(N)c(C#N)c34)c(Cl)cc12` [Example 65, 2-Amino-4-(6-chloro-8-fluoro-2-(((2R,7aS)-2-fluorotetrahydro-1H-pyrrolizin-7a(5H)-yl)methoxy)-4-((2R,3R)-3-hydroxy-2-methylpyrrolidin-1-yl)quinazolin-7-yl)-7-fluorobenzo[b] thiophene-3-carbonitrile], the IC50 in assay [1] was determined as 6 nM; in assay [2], 12 nM; in assay [3] (setting [4]) it was 0.33 µM.

Take `N#Cc1c(N)sc2c(F)ccc(-c3c(Cl)cc4c(N5CCCCC(S(N)(=O)=O)C5)nc(OC[C@@]56CCCN5C[C@H](F)C6)nc4c3F)c12` (stereo partly drawn) [Example 15, 1-(7-(2-Amino-3-cyano-7-fluorobenzo[b]thiophen-4-yl)-6-chloro-8-fluoro-2-(((2R,7aS)-2-fluorotetrahydro-1H-pyrrolizin-7a(5H)-yl)methoxy)quinazolin-4-yl)azepane-3-sulfonamide]: the IC50 was determined as 4 nM in assay [1], 3 nM in assay [2] and 0.296 µM in assay [3] (setting [4]).

On to `C[C@]1(O)CCCN(c2nc(OC[C@@]34CCCN3C[C@H](F)C4)nc3c(F)c(-c4ccc(F)c5sc(N)c(C#N)c45)c(Cl)cc23)C1` [Example 39, 2-Amino-4-(6-chloro-8-fluoro-2-(((2R,7aS)-2-fluorotetrahydro-1H-pyrrolizin-7a(5H)-yl)methoxy)-4-((S)-3-hydroxy-3-methylpiperidin-1-yl)quinazolin-7-yl)-7-fluorobenzo[b] thiophene-3-carbonitrile], for which the half-inhibitory concentration (IC50) was found to be 11 nM in assay [1], 10 nM in assay [2] and 0.283 µM in assay [3] (setting [4]).

As to `CCC1(O)COCCN(c2nc(OC[C@@]34CCCN3C[C@H](F)C4)nc3c(F)c(-c4ccc(F)c5sc(N)c(C#N)c45)c(Cl)cc23)C1` (single isomer, unassigned) [Example 45], the IC50 in assay [1] was 5 nM; in assay [2], 6 nM; in assay [3] (setting [5]) it was 0.185 µM.

Consider `N#Cc1c(N)sc2c(F)ccc(-c3c(Cl)cc4c(N5CC6CC(O)C(C6)C5)nc(OC[C@@]56CCCN5C[C@H](F)C6)nc4c3F)c12` (mixture of isomers) [Example 7, 2-Amino-4-(6-chloro-8-fluoro-2-(((2R,7aS)-2-fluorotetrahydro-1H-pyrrolizin-7a(5H)-yl)methoxy)-4-(rac-(1R,5R,6R)-6-hydroxy-3-azabicyclo[3.2.1]octan-3-yl)quinazolin-7-yl)-7-fluorobenzo[6] thiophene-3-carbonitrile], for which the 50% inhibitory concentration (IC50) in assay [3] (setting [4]) amounted to 0.264 µM.
